# From US20240400542A1 (University of Virginia Patent Foundation, priority 2021, published 2024)
# Biological target: T1, PFKL (Homo sapiens, UniProt P17858)
# T1 construct: endogenous in cells; host or cells: HEK293T
# T1 sequence (P17858 1-780): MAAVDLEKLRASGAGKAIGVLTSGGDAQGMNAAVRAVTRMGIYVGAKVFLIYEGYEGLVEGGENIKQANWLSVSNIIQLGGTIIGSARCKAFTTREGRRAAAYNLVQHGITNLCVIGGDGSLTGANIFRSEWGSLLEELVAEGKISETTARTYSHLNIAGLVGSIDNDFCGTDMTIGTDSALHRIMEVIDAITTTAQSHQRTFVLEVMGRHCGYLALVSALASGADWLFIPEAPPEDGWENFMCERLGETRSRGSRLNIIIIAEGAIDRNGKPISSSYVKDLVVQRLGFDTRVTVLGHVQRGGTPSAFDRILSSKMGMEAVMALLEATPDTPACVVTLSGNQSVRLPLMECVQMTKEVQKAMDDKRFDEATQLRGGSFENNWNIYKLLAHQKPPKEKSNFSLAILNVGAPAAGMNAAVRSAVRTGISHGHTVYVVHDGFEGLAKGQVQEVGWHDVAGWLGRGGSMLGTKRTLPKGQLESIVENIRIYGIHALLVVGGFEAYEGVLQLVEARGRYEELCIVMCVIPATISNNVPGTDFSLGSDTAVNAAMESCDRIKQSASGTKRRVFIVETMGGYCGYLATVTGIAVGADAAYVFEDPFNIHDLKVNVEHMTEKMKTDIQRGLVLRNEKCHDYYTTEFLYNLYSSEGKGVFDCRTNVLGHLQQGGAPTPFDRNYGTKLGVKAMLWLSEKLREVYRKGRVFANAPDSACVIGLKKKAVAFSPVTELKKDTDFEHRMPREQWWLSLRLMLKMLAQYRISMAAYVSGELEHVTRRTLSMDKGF
# Assay: SILAC competitive chemical proteomic assay (TH211 probe, LC-MS/MS)
# Format: cell-based
# Experimental: The light and heavy proteomes (2.3 mg/mL, 432 μL) prepared from HEK293T cells that were pretreated in situ with vehicle (DMSO) or the inhibitor (2 μM), respectively, at 37° C. for 1 hr followed by probe TH211 treatment (50 μM) for 2 h, were directly were subjected to click reaction with the desthiobiotin-PEG3-azide (10 mM in DMSO, 10 μL, final concentration 200 μM) in the presence of TCEP (50 mM, 10 μL), TBTA (1.7 mM, 33 μL) and CuSO4 (50 mM, 10 μL) at room temperature for 1 hr. The light and the heavy samples were mixed in the chloroform-methanol extraction step. The subsequent steps including reduction with dithiothreitol, alkylation with iodoacetamide, digestion with Trypsin/Lys-C, enrichment with avidin beads were conducted as previously described^26.
# Some SuTEx analogues with RF001 fragment were synthesized and characterized. The in situ competition assay was then conducted, during which HEK293T cells were treated with 1 μM of a SuTEx analogue for 1 h, followed by treatment with 25 μM of TH211 as the probe for 2 h. […] The analogues with electron-donating groups like methyl or methoxy on the para position of phenyl performed better than those with electron-withdrawing groups. Under the same condition, the IC5o of TH220 was determined as 305.6 nM. The identity of the bound protein was studied by LC-MS/MS. The assay results indicated PFKL as the potential target and that binding sites include Y674 and K677, since the ratio trends are the same as that found in the in situ competition assay. To study selective targeting of PFKL by the series of SuTEx analogues, Fag-PFKL, Flag-PFKM, and Flag-PFKP were overexpressed in HEK293T cells and in vitro competition assays were performed for comparison. […] To optimize these SuTEx ligands, another series of derivatives were synthesized and evaluated with TH233 as a negative control and TH220 as positive control, respectively. […] Compared to TH220, the probinding activity of XJ-2-103 with trifluoromethyl group at para position of the phenyl ring is not as good, which is consistent with the results shown in FIG. 18A.
compound,measurement,setting,value
"Cc1ccc(S(=O)(=O)n2cc(CCN3CCC(=C(c4ccc(F)cc4)c4ccc(F)cc4)CC3)nn2)cc1 [TH207, 4-(Bis(4-fluorophenyl)methylene)-1-(2-(1-tosyl-1H-1,2,3-triazol-4-yl)ethyl)piperidine]",SILAC ratios (SR) from competitive chemical proteomic assay,"HEK293T in situ, vehicle (light) vs inhibitor 2 μM (heavy) 1 hr, then TH211 50 μM 2 h, protein/site not given",3.41
same,"Normalized SILAC ratio (SR), PFKL K677","TH207 inhibitor, HEK293T soluble fraction, P17858.6 lysine 677",2.7
same,"Normalized SILAC ratio (SR), PFKL Y674","TH207 inhibitor, HEK293T soluble fraction, P17858.6 tyrosine 674",2.7
